concentration, Kp and IC50 data for 3 molecules are collected here from patent US20220009920A1 (GB005, Inc., priority 2020, published 2022).

Molecules are shown by their SMILES. Where two headings read alike, the source gives them in different places.

Data set [1] is described as follows: Plasma and total brain concentrations at 1 h post single oral administration to female C57BL/6 mice. Format: in vivo. As to conditions: mouse, 10 mg/kg oral gavage; for Kp at 1 h: brain/plasma, read-out: brain to plasma ratio. The procedure: The appropriate amount of test article was dissolved 10% dimethylacetamide (DMA)/90% (20% hydroxypropyl-β-cyclodextrin (HP-B-CD) w/v in water to obtain a final concentration of 1 mg/mL for oral dosing. Sonication, vortex, and homogenization was used as needed. Three female C57BL/6 mice aged 7-9 weeks (20-30 grams) were dosed by oral gavage 10 mg/kg solution of the test article.
Concentrations of test compounds in the plasma and brain samples (use plasma and brain homogenate standard curve for all samples appropriately) were analyzed using LC-MS/MS. Compounds having a brain-to-plasma ratio of greater than 0.2 were considered brain penetrant.

A further data set addresses T1, BTK (Homo sapiens, UniProt Q06187).
T1 construct: purchased Cama
As to the kind of experiment: Assay to determine activity against BTK. Format: biochemical. To be noted: 1 mM ATP, 2 nM BTK, 90 minutes at room temperature. In a few lines:
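Recombinant BTK (2 nM) was assayed with 1.5 µM FL-peptide and 1 mM ATP in pH 7.5 HEPES buffer with MgCl2, DTT, BSA and EGTA, for 90 min at room temperature before an EDTA stop. Peptide conversion ratio was read by mobility-shift, and IC50 came from 11-point 3-fold dilution curves.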

For a further data set, the system named is BTK in RAMOS B cells. In words: Assay to determine BTK activity in RAMOS B cells (anti-IgM, FLIPR Calcium 6). To be noted: Homo sapiens, Ramos, anti-IgM EC80, calcium readout. Format: cell-based.
Where [2] appears, read: plasma, read-out: Mean [plasma].

Usually IC50 stands for the midpoint of a concentration-inhibition curve.

T1 sequence (Q06187 whole entry): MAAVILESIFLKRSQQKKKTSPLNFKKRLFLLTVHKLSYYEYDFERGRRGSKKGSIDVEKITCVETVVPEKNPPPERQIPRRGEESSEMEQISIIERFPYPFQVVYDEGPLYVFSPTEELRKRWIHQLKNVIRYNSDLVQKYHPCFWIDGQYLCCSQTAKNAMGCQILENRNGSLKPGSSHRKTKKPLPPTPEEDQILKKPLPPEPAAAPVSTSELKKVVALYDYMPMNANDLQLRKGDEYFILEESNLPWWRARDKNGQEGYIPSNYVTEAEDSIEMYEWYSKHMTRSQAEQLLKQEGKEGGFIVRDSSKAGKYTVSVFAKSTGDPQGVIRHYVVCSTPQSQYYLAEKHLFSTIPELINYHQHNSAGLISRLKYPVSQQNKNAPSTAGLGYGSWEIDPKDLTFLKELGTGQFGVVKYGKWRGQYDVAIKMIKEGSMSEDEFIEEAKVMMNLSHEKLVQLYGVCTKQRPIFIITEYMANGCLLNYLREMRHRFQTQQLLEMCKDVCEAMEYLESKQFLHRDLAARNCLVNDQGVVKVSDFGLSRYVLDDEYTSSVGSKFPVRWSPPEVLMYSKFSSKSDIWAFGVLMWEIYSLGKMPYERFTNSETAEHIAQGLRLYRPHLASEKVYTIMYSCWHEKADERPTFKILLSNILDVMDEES

For `C=CC(=O)N1CCC=C(c2c(F)cc(C(N)=O)c3[nH]c4c(c23)CCCCC4)C1` [Compound 5-4, 1-(1-acryloyl-1,2,5,6-tetrahydropyridin-3-yl)-2-fluoro-5,6,7,8,9,10-hexahydrocyclohepta[b]indole-4-carboxamide], the concentration at 1 h came to 4 ng/g in data set [1] (brain, read-out: Mean [brain]) and 18 ng/mL in data set [1] (setting [2]). Also, in data set [1], the Kp at 1 h was found to be 0.22. Further, the IC50 against BTK is less than 10 nM; in the data set on BTK in RAMOS B cells, 10 to 100 nM.
As to `C=CC(=O)N1CCC[C@@H](c2cnc(C(N)=O)c3[nH]c4c(c23)CCCC4)C1` [Compound 2-4, (S)-4-(1-acryloylpiperidin-3-yl)-6,7,8,9-tetrahydro-5H-pyrido[3,4-b]indole-1-carboxamide], the concentration at 1 h in data set [1] (brain, read-out: Mean [brain]) came out at 39 ng/g; in data set [1] (setting [2]) it was 163 ng/mL. For the same molecule, the Kp at 1 h in data set [1] turned out to be 0.24. Also, the IC50 against BTK and in the data set with BTK in RAMOS B cells was less than 10 nM each time.
With `C=CC(=O)N1CCc2c(cccc2-c2ccc(C(N)=O)c3[nH]c4c(c23)CC2(CC4)CC2)C1` [Compound 7-2, 5-(2-acryloyl-1,2,3,4-tetrahydroisoquinolin-5-yl)-1,2,4,9-tetrahydrospiro[carbazole-3,1′-cyclopropane]-8-carboxamide], the concentration at 1 h in data set [1] (brain, read-out: Mean [brain]) amounted to 43 ng/g; in data set [1] (setting [2]), 109 ng/mL. The Kp at 1 h in data set [1] stood at 0.39. Besides, the IC50 against BTK is 10 to 100 nM; in the data set on BTK in RAMOS B cells, not below 100 nM.
